In experiment [1] the target is T1, Alpha-2C adrenergic receptor (Homo sapiens, UniProt P18825).
T1 sequence (P18825 whole entry): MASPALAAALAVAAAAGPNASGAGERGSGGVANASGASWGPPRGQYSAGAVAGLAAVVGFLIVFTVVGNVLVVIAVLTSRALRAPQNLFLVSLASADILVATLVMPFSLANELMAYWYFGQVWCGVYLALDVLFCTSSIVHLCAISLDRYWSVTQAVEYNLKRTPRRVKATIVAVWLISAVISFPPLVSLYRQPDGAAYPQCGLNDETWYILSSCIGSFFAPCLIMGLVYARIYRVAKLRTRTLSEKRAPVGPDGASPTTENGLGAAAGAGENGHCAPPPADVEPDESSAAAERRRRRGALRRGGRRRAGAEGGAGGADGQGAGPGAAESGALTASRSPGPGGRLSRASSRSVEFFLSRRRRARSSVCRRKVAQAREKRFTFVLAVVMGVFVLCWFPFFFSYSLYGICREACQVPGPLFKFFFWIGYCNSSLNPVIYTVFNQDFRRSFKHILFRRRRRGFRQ
The experiment can be described thus: DRUGMATRIX: Adrenergic Alpha-2C radioligand binding (ligand: [3H] MK-912). The format is cell membranes, Sf9, Membrane.

Experiment [2] concerns the target Sigma non-opioid intracellular receptor 1 (Homo sapiens, UniProt Q99720). As to the kind of experiment: DRUGMATRIX: Sigma1 radioligand binding (ligand: [3H] Haloperidol). The class given is cell membranes, Jurkat, Membrane. The conditions noted are these: Not Active = under 50% inhibition at 10 µM; for Ki: read-out: Ki.
For experiment [3], the target named is Vascular endothelial growth factor receptor 1 (Homo sapiens, UniProt P17948). The format is cell-based. The conditions noted are these: huvec. Further: in other assays of this panel Not Active means under 50% inhibition at 10 µM.
Chain of Vascular endothelial growth factor receptor 1 (P17948 whole entry): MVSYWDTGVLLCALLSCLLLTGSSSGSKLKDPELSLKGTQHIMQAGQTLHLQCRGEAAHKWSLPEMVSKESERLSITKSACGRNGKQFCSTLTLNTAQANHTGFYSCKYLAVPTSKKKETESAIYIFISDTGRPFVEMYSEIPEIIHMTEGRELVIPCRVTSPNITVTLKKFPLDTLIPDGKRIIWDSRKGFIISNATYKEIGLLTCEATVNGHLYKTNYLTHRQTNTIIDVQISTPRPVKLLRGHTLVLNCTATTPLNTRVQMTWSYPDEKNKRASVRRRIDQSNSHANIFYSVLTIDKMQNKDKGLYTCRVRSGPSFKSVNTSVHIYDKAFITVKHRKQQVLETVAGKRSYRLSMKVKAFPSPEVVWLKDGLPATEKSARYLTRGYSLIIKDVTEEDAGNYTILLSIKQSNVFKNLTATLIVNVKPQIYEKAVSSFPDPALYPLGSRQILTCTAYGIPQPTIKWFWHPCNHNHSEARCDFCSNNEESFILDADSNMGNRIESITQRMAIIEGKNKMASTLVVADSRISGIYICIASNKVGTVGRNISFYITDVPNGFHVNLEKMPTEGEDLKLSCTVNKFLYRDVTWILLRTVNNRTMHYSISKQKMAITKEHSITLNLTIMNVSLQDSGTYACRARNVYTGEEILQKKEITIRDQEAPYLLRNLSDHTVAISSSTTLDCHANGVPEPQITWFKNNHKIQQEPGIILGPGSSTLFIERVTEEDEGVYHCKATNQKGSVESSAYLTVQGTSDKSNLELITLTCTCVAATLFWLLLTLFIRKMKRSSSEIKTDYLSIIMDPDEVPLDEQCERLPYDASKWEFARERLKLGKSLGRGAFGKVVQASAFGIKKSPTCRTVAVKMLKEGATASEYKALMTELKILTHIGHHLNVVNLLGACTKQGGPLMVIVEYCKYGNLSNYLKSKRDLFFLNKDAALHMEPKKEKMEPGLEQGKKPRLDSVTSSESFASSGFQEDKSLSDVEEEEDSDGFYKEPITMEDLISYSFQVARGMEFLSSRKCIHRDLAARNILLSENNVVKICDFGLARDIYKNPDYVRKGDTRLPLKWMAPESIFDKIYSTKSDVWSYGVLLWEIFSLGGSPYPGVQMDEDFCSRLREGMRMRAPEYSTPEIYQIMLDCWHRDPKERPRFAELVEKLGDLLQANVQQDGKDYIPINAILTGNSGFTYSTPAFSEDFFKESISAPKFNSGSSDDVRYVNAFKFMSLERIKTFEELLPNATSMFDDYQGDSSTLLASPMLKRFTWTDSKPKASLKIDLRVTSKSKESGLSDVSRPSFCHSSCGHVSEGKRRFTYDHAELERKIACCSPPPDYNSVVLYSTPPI
The target in experiment [4] is C-C chemokine receptor type 5 (Homo sapiens, UniProt P51681). The class given is cell membranes, Membrane. The conditions noted are these: hek293. Further: in other assays of this panel Not Active means under 50% inhibition at 10 µM.
Chain of C-C chemokine receptor type 5 (P51681 whole entry): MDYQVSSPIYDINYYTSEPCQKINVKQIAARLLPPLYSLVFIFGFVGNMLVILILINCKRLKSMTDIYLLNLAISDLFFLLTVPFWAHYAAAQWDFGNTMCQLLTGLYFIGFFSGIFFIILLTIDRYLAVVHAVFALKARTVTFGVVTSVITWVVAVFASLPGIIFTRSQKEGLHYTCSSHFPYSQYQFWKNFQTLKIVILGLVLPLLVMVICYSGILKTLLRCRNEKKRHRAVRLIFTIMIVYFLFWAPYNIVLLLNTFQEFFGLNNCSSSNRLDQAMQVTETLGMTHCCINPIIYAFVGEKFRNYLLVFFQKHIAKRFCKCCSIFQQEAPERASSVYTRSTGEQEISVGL
Experiment [5] addresses T2, Neuropeptide Y receptor type 2 (Homo sapiens, UniProt P49146).
T2 sequence (P49146 whole entry): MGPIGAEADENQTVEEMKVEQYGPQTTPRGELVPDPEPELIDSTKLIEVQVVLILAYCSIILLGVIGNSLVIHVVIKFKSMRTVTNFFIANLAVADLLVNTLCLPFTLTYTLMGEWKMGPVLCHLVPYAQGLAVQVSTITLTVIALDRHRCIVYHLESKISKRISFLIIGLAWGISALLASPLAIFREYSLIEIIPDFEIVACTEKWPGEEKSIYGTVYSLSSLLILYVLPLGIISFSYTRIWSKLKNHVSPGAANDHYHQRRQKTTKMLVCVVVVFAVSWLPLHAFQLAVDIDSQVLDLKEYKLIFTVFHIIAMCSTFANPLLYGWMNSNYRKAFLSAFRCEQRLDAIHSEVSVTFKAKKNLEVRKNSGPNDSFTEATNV
The format is cell membranes, Membrane. The conditions noted are these: kan-ts.

For experiment [6], the target named is Matrix metalloproteinase-9 (Homo sapiens, UniProt P14780). The class given is cell-based.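 Further: inhibition of isolated MMP-9 enzyme activity toward a synthetic peptide substrate, from the DrugMatrix protease screening panel; in other assays of this panel Not Active means under 50% inhibition at 10 µM.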
Chain of Matrix metalloproteinase-9 (P14780 whole entry): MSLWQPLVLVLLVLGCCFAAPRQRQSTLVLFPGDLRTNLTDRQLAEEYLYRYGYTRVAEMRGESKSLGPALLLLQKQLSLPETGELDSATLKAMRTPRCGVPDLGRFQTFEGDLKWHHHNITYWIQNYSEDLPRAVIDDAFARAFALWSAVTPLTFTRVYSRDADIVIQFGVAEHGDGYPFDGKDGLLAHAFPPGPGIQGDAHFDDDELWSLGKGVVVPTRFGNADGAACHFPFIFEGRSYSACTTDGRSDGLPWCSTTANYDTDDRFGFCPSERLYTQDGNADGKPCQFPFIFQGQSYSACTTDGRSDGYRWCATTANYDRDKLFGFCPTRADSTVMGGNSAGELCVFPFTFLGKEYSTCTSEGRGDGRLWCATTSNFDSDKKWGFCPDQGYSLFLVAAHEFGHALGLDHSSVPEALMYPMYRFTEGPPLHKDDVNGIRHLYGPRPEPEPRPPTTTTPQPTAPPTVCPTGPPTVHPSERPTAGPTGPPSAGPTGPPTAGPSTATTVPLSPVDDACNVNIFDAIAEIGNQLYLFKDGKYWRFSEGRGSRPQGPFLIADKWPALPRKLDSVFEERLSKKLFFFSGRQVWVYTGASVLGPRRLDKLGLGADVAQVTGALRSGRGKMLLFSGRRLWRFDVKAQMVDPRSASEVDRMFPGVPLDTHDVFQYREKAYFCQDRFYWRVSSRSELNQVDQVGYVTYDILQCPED
For experiment [7], the target named is Receptor tyrosine-protein kinase erbB-2 (Homo sapiens, UniProt P04626). As to the kind of experiment: biochemical. The format is cell-based, Insect cells.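 Further: inhibition of HER2 kinase enzyme activity, measured with Poly(Glu:Tyr) as the phosphorylation substrate; in other assays of this panel Not Active means under 50% inhibition at 10 µM.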
Chain of Receptor tyrosine-protein kinase erbB-2 (P04626 whole entry): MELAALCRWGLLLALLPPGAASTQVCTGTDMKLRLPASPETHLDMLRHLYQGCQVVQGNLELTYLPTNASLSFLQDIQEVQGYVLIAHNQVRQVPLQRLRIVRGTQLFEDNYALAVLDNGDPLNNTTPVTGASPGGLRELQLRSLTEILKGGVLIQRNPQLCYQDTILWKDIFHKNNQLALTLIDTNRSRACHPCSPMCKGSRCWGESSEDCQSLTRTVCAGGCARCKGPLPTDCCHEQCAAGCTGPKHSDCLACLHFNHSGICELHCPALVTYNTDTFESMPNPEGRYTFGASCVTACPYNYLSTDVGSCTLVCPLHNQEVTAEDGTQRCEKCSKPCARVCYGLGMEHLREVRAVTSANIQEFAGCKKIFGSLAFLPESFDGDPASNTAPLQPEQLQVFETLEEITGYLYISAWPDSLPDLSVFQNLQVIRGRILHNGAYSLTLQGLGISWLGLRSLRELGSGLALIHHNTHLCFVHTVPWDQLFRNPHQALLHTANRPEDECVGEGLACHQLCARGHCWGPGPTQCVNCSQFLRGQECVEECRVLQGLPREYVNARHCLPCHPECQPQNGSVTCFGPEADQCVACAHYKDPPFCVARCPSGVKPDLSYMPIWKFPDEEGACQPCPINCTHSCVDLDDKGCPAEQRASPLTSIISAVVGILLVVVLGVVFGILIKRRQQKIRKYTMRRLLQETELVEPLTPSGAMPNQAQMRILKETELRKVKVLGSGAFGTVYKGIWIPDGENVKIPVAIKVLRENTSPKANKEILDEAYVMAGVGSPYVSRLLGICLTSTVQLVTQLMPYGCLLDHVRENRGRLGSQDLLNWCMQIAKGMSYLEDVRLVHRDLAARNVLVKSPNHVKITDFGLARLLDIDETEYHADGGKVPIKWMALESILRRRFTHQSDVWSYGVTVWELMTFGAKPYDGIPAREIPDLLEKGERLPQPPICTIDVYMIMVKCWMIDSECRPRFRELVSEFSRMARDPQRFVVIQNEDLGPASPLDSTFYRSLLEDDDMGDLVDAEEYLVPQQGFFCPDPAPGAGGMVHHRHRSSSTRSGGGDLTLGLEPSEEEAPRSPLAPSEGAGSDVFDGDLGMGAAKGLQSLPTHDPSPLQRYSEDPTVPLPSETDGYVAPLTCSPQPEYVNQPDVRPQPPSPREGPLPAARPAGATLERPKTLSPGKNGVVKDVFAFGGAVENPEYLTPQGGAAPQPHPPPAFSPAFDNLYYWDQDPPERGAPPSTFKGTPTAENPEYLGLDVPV

Chain of Sigma non-opioid intracellular receptor 1 (Q99720 whole entry): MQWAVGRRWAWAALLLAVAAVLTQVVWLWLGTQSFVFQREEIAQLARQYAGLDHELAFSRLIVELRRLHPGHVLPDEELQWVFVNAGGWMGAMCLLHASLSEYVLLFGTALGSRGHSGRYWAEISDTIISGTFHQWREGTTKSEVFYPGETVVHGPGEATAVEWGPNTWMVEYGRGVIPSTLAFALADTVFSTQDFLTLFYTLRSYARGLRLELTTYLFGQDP

A word on the IC50: it is the point on the concentration scale where inhibition reaches its midpoint. Regarding `CCCCC(=O)N(Cc1ccc(-c2ccccc2-c2nnn[nH]2)cc1)[C@H](C(=O)O)C(C)C`, the IC50 result in experiment [1] (sf9), in experiment [2] (jurkat), in experiment [3], in experiment [4], in experiment [5] and in experiment [6] was “Not Active” throughout. Also, the IC50 result in experiment [7] (insect cells) is “Not Active”.

On to `O=C(O)COc1ccc(C(=O)c2cccs2)c(Cl)c1Cl`, for which the IC50 result in experiment [1] (sf9), in experiment [2] (jurkat), in experiment [3], in experiment [4], in experiment [5] and in experiment [6] was “Not Active” throughout. For the same compound, the IC50 entry in experiment [7] (insect cells) is listed as “Not Active”.

In the case of `CN1[C@@H]2CC[C@H]1C[C@@H](OC(c1ccccc1)c1ccccc1)C2` [BENZTROPINE], the concentration for half-maximal inhibition (IC50) entry in experiment [3], in experiment [4], in experiment [5], in experiment [6] and in experiment [7] (insect cells) was “Not Active” each time.

Take `C[C@@](Cc1ccc(O)c(O)c1)(NN)C(=O)O.O` [CARBIDOPA]: the IC50 entry in experiment [1] (sf9), in experiment [2] (jurkat), in experiment [3], in experiment [4], in experiment [5] and in experiment [6] was “Not Active” throughout. Further, the IC50 result in experiment [7] (insect cells) is on record as “Not Active”.

With `CN1CCN(C2=Nc3cc(Cl)ccc3Nc3ccccc32)CC1` [CLOZAPINE], the IC50 entry in experiment [2] (jurkat), in experiment [3], in experiment [4], in experiment [5], in experiment [6] and in experiment [7] (insect cells) was “Not Active” in each case.

By Ki is commonly meant a measure of affinity in units of concentration, obtained from inhibition or displacement. As to `CC(C)NC[C@@H](O)COc1cccc2ccccc12` [DEXPROPRANOLOL], the IC50 entry in experiment [1] (sf9) was “Not Active”; in experiment [2] (read-out: IC50) it was 3970 nM; in experiment [3] it was “Not Active”; in experiment [4], “Not Active”; in experiment [5], “Not Active”; in experiment [6], “Not Active”. Further, the concentration for half-maximal inhibition (IC50) result in experiment [7] (insect cells) is given as “Not Active”. Moreover, the Ki in experiment [2] came out at 1670 nM.

For the compound `CC(C)NC[C@H](O)COc1cccc2ccccc12` [LEVOPROPRANOLOL], the half-maximal inhibitory concentration (IC50) result is “Not Active” in experiment [1] (sf9); 6660 nM in experiment [2] (read-out: IC50); “Not Active” in experiment [3]; “Not Active” in experiment [4]; “Not Active” in experiment [5]; “Not Active” in experiment [6]. In addition, in experiment [7] (insect cells), the IC50 entry was “Not Active”. In addition, the Ki in experiment [2] is 2800 nM.

In the case of `O=C(O)CCCCC1CCSS1` (stereo not drawn) [LIPOIC ACID, ALPHA], the concentration for half-maximal inhibition (IC50) result in experiment [1] (sf9), in experiment [2] (jurkat), in experiment [3], in experiment [4], in experiment [5] and in experiment [6] was “Not Active” throughout. Besides, the 50% inhibitory concentration (IC50) entry in experiment [7] (insect cells) is recorded as “Not Active”.

Turning to `CN(C)C(=O)C(CCN1CCC(O)(c2ccc(Cl)cc2)CC1)(c1ccccc1)c1ccccc1` [LOPERAMIDE], the IC50 entry in experiment [1] (sf9) is “Not Active”; in experiment [2] (read-out: IC50) it was 628 nM; in experiment [3], “Not Active”; in experiment [4], “Not Active”; in experiment [5] it was “Not Active”; in experiment [6], “Not Active”. In experiment [7] (insect cells), the IC50 result is given as “Not Active”. In addition, the Ki in experiment [2] was determined as 264 nM.

`Clc1ccc(COC(Cn2ccnc2)c2ccc(Cl)cc2Cl)c(Cl)c1` (stereo unspecified) [MICONAZOLE]: the IC50 entry in experiment [1] (sf9), in experiment [2] (jurkat), in experiment [3], in experiment [4], in experiment [5] and in experiment [6] was “Not Active” each time. For the same compound, in experiment [7] (read-out: IC50), the IC50 worked out at 27400 nM.

As for `Oc1ccc2c3c1O[C@H]1[C@@H](O)CC[C@@]4(O)[C@@H](C2)N(CC2CCC2)CC[C@]314` [NALBUPHINE], the 50% inhibitory concentration (IC50) entry in experiment [1] (sf9), in experiment [2] (jurkat), in experiment [3], in experiment [4], in experiment [5] and in experiment [6] was “Not Active” each time. For the same compound, in experiment [7] (insect cells), the IC50 entry is “Not Active”.

Regarding `C[C@]12C=CC(=O)C=C1CC[C@@H]1[C@@H]2C(=O)C[C@@]2(C)[C@H]1CC[C@]2(O)C(=O)CO` [PREDNISONE], the IC50 result in experiment [1] (sf9), in experiment [2] (jurkat), in experiment [3], in experiment [4], in experiment [5] and in experiment [6] was “Not Active” throughout. Also, the half-maximal inhibitory concentration (IC50) result in experiment [7] (insect cells) was “Not Active”.

On to `OCCOCCN1CCN(C2=Nc3ccccc3Sc3ccccc32)CC1` [QUETIAPINE], for which the IC50 was 2290 nM in experiment [2] (read-out: IC50); “Not Active” in experiment [3]; “Not Active” in experiment [4]; “Not Active” in experiment [5]; “Not Active” in experiment [6]; “Not Active” in experiment [7] (insect cells). Also, the Ki in experiment [2] was 964 nM.

On to `COC(=O)[C@H]1[C@H]2C[C@@H]3c4[nH]c5cc(OC)ccc5c4CCN3C[C@H]2C[C@@H](OC(=O)c2cc(OC)c(OC)c(OC)c2)[C@@H]1OC` [RESERPINE], for which the 50% inhibitory concentration (IC50) entry in experiment [1] (sf9), in experiment [2] (jurkat), in experiment [3], in experiment [4], in experiment [5] and in experiment [6] was “Not Active” in each case. Moreover, the half-inhibitory concentration (IC50) entry in experiment [7] (insect cells) is “Not Active”.

Turning to `O=C(O)c1ccccc1O` [SALICYLIC ACID], the IC50 entry in experiment [1] (sf9), in experiment [2] (jurkat), in experiment [3], in experiment [4], in experiment [5] and in experiment [6] was “Not Active” throughout. The IC50 entry in experiment [7] (insect cells) is recorded as “Not Active”.

Consider `C[S+]([O-])c1ccc(-c2nc(-c3ccncc3)c(-c3ccc(F)cc3)[nH]2)cc1` (stereo unspecified) [SB-203580], for which the IC50 entry in experiment [1] (sf9), in experiment [2] (jurkat), in experiment [4], in experiment [5] and in experiment [6] was “Not Active” each time.

In the case of `CC1CCC(NC(=O)N(CCCl)N=O)CC1` (stereo unspecified) [SEMUSTINE], the IC50 entry in experiment [1] (sf9), in experiment [2] (jurkat), in experiment [3], in experiment [4], in experiment [5] and in experiment [6] was “Not Active” in each case. The IC50 result in experiment [7] (insect cells) is on record as “Not Active”.

On to `O=C1C[C@@H]2OCC=C3CN4CC[C@]56c7ccccc7N1[C@H]5[C@H]2[C@H]3C[C@H]46` [STRYCHNINE], for which the IC50 entry in experiment [1] (sf9), in experiment [2] (jurkat), in experiment [3], in experiment [4], in experiment [5] and in experiment [6] was “Not Active” in each case. Besides, in experiment [7] (insect cells), the IC50 entry is reported as “Not Active”.

With `C[N+](C)(C)CCOC(=O)CCC(=O)OCC[N+](C)(C)C.[Cl-].[Cl-]` [SUCCINYLCHOLINE CHLORIDE], the IC50 entry in experiment [1] (sf9), in experiment [2] (jurkat), in experiment [3], in experiment [4], in experiment [5] and in experiment [6] was “Not Active” in each case. For the same compound, the IC50 result in experiment [7] (insect cells) is given as “Not Active”.

Take `Nc1ccc(S(=O)(=O)NC(=O)c2ccccc2)cc1` [SULFABENZAMIDE]: the half-maximal inhibitory concentration (IC50) entry in experiment [1] (sf9), in experiment [2] (jurkat), in experiment [3], in experiment [4], in experiment [5] and in experiment [6] was “Not Active” each time. For the same compound, the IC50 result in experiment [7] (insect cells) is on record as “Not Active”.

For `CCCCCCCCNC(C)C(O)c1ccc(SC(C)C)cc1` (stereo unspecified) [SULOCTIDIL], the concentration for half-maximal inhibition (IC50) was 3450 nM in experiment [1] (read-out: IC50); 117 nM in experiment [2] (read-out: IC50); “Not Active” in experiment [3]; “Not Active” in experiment [4]; “Not Active” in experiment [5]; “Not Active” in experiment [6]. Moreover, the half-inhibitory concentration (IC50) result in experiment [7] (insect cells) was “Not Active”. Further, the inhibition constant (Ki) in experiment [1] (read-out: Ki) is 501 nM; in experiment [2], 49.3 nM.

As to `O=c1[nH]c(=O)n(C2CCCO2)cc1F` (stereo unspecified) [TEGAFUR], the half-maximal inhibitory concentration (IC50) result in experiment [1] (sf9), in experiment [2] (jurkat), in experiment [3], in experiment [4], in experiment [5] and in experiment [6] was “Not Active” throughout. In addition, in experiment [7] (insect cells), the IC50 result is recorded as “Not Active”.

Turning to `CC(=N)S` [THIOACETAMIDE], the half-maximal inhibitory concentration (IC50) entry in experiment [1] (sf9), in experiment [2] (jurkat), in experiment [3], in experiment [4], in experiment [5] and in experiment [6] was “Not Active” in each case. Moreover, the 50% inhibitory concentration (IC50) entry in experiment [7] (insect cells) is recorded as “Not Active”.

Source of the values: ChEMBL document CHEMBL1909046, “DrugMatrix in vitro pharmacology data”.
